The target of data set [1] is T1, Neuropeptide Y receptor type 1 (Homo sapiens, UniProt P25929).
T1 sequence (P25929 whole entry): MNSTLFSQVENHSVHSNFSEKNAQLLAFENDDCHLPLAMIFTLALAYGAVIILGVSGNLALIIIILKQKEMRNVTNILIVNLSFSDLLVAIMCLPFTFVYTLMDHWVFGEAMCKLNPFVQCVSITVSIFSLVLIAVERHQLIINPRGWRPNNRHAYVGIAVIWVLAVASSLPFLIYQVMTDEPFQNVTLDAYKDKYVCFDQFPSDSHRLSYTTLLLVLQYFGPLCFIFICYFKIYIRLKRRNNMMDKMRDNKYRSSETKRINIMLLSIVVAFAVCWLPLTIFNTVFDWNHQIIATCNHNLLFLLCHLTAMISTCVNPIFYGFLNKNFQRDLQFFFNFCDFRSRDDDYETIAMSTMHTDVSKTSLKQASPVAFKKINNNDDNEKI
The data set can be described thus: Displacement of [125I]PYY from NPY1 receptor in human SK-N-MC cells after 1 hr by microbeta scintillation counting analysis. In kind it is cell-based. (In general: Loss of bound radioactivity is the signal in a displacement assay; it reports binding, not function.)

Data set [2] deals with Rattus norvegicus. The data set can be described thus: Antiobesity activity in Sprague-Dawley rat spontaneous nocturnal feeding model assessed as reduction in food intake at 10 to 30 mg/kg, ip administered 1 hr before onset of darkness measured during first hour and first 3 hrs of darkness. In kind it is functional, organism-based.
Data set [3] is described as follows: Oral bioavailability in rat at 20 mg/kg. In kind it is ADME, organism-based. The following applies: in vivo.
Data set [4] in a line: Aqueous solubility of the compound in 40% aqueous trappsol. In kind it is physicochemical.
Data set [5] is described as follows: Bioavailability in rat at 10 mg/kg, ip. In kind it is ADME, organism-based. The following applies: in vivo.
Data set [6] is described as follows: Drug uptake in rat brain at 10 mg/kg, ip after 15 mins. Also noted: dose 10 mg/kg, route intraperitoneal. The following applies: read-out: Drug uptake. In kind it is ADME, organism-based.
Data set [7] has as its system Rattus norvegicus. Nature of the data set: Antiobesity activity in Sprague-Dawley rat spontaneous nocturnal feeding model assessed as reduction in food intake at 35.6 to 60 mg/kg, po administered 2.5 hrs before onset of darkness measured during first hr. The format is functional, organism-based.

Broadly, the IC50 is the concentration that gives 50% inhibition. A lower IC50 goes with greater potency in that assay. One may read the bioavailability as dose-corrected exposure relative to a reference, in per cent. By solubility is commonly meant how much of the substance goes into solution per volume.

Values after ≈ are worked out from the molar mass of the structure shown. Active and inactive are the calls of the source. The calls are words filed in the database; no cut-off is given here. A value given as a limit tells only on which side of the number the result lay.

As for `CCOc1cccc(C2(N3CCN(c4ccncc4)CC3)C3CC(C)CC32)c1` (stereo unspecified), the 50% inhibitory concentration (IC50) in data set [1] is above 10 µM.
As for `CCOc1cccc(C2(N3CCN(c4ccccn4)CC3)C3CC(C)CC32)c1` (stereo unspecified), the outcome in the data set on Rattus norvegicus [2] and with Rattus norvegicus [7] was Active. The bioavailability amounted to 53% in data set [3] and 40% in data set [5]. This molecule also gave an IC50 in data set [1] of 0.042 µM. Besides, in data set [4], the solubility is above 50000 µg/mL. In addition, the concentration at 0.25 h in data set [6] was above 100 nM.
Consider `CCOc1cccc(C2(N3CCN(c4cncnc4)CC3)C3CC(C)CC32)c1` (stereo unspecified), for which the 50% inhibitory concentration (IC50) in data set [1] was 5.03 µM.
In data set [1], `CCOc1cccc(C2(N3CCN(c4ccccc4N)CC3)C3CC(C)CC32)c1` (stereo unspecified) showed an IC50 above 10 µM.
With `CCOc1cccc(C2(N3CCN(Cc4ccccc4)CC3)C3CC(C)CC32)c1` (stereo unspecified), the IC50 in data set [1] was above 10 µM.
With `CCOc1cccc(C2(N3CCN(c4ccc(Cl)nn4)CC3)C3CC(C)CC32)c1` (stereo unspecified), the IC50 in data set [1] was above 10 µM.
In turn, `CCOc1cccc(C2(N3CCN(c4ncncn4)CC3)C3CC(C)CC32)c1` (stereo unspecified) came in with an IC50 in data set [1] of 4.27 µM.
Molecule `CCOc1cccc(C2(N3CCN(c4cnccn4)CC3)C3CC(C)CC32)c1` (stereo unspecified) gave an IC50 in data set [1] of 0.265 µM.
For `CCOc1cccc(C2(N3CCNCC3)C3CC(C)CC32)c1` (stereo unspecified), the half-maximal inhibitory concentration (IC50) in data set [1] was above 10 µM.
Molecule `CCOc1cccc(C2(N3CCN(c4ncccn4)CC3)C3CC(C)CC32)c1` (stereo unspecified) displayed an IC50 in data set [1] of 0.054 µM. The molecule further came in with a solubility in data set [4] of 10000 µg/mL (≈ 26.4 mM).
`CCOc1cccc(C2(N3CCN(c4cccnn4)CC3)C3CC(C)CC32)c1` (stereo unspecified): the 50% inhibitory concentration (IC50) in data set [1] came to 4.38 µM.
Turning to `CCOc1cccc(C2(N3CCN(c4cccnc4)CC3)C3CC(C)CC32)c1` (stereo unspecified), in data set [1], the concentration for half-maximal inhibition (IC50) came out at 0.892 µM.
On the same count and under the same terms, for `CCOc1cccc(C2(N3CCN(c4ccccc4)CC3)C3CC(C)CC32)c1` (stereo unspecified) the value was 0.062 µM; for `CCOc1cccc(C2(N3CCN(c4cccc(OC)n4)CC3)C3CC(C)CC32)c1` (stereo unspecified), above 10 µM.

The values are drawn from ChEMBL document CHEMBL2396603, “Heterocyclic modification of a novel bicyclo[3.1.0]hexane NPY1 receptor antagonist” (Bioorg Med Chem Lett, 2013).
